According to PMC12155096 (International Journal of Molecular Sciences, 2025):
Where a name gives a salt, the structure may show the parent alone. Read-outs that look alike come from different tables or passages of the source.

Assays:
human CYP2C19 [1] = biological target: T1, human CYP2C19 (Homo sapiens, UniProt P33261); conditions: for CYP2C19 Efficacy (in parenthesis): human
human CYP2D6 [2] = biological target: T2, human CYP2D6 (Homo sapiens, UniProt P10635); test: biochemical
human CYP2C9 [3] = biological target: T3, human CYP2C9 (Homo sapiens, UniProt P11712); conditions: for CYP2C9 Efficacy (in parenthesis): human
human CYP2C9 [4] = biological target: T3, human CYP2C9; test: biochemical
human CYP2D6 [5] = biological target: T2, human CYP2D6; conditions: human
human CYP1A2 [6] = biological target: T4, human CYP1A2 (Homo sapiens, UniProt P05177); conditions: for CYP1A2 Efficacy (in parenthesis): human
T4 sequence (P05177 1-516): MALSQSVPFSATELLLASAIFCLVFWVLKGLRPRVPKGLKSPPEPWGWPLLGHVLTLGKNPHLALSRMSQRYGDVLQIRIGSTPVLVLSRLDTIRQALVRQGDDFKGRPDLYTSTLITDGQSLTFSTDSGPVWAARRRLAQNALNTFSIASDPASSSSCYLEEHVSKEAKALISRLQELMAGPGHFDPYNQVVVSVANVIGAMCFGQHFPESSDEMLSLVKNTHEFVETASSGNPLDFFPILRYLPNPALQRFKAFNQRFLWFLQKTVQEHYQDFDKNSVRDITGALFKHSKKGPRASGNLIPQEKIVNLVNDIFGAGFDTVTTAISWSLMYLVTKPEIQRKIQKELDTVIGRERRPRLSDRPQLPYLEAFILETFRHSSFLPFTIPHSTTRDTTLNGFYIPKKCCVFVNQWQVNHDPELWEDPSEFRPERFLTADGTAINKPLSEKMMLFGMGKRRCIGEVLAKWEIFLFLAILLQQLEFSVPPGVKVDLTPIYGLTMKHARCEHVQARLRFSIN

human CYP2C19 [7] = biological target: T1, human CYP2C19; test: biochemical
[8] = biological target: Photinus pyralis (firefly) luciferase (Photinus pyralis, UniProt P08659); test: biochemical; assay type: biochemical
human CYP1A2 [9] = biological target: T4, human CYP1A2; test: biochemical
CYP3A4 = CYP3A4 (Homo sapiens, UniProt P08684)
[10] = CYP2D6 IC50 (half-maximal inhibitory concentration)
[11] = CYP2C9 IC50 (half-maximal inhibitory concentration)
[12] = CYP2C19 IC50 (half-maximal inhibitory concentration)

T2 sequence (P10635 whole entry): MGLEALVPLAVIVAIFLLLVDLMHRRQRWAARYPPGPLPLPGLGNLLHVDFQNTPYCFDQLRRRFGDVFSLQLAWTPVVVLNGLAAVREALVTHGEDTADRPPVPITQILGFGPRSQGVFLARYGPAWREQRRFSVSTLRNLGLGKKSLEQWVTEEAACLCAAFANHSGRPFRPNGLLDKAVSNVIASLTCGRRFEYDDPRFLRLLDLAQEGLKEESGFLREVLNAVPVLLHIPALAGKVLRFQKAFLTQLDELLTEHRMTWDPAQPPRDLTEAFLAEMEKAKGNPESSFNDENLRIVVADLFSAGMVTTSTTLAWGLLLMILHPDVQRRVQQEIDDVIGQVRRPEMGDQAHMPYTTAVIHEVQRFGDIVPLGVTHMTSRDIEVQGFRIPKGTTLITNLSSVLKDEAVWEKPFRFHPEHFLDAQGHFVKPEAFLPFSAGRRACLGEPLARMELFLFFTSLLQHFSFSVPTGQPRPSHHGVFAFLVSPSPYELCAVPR
Photinus pyralis (firefly) luciferase, sequence (P08659 whole entry): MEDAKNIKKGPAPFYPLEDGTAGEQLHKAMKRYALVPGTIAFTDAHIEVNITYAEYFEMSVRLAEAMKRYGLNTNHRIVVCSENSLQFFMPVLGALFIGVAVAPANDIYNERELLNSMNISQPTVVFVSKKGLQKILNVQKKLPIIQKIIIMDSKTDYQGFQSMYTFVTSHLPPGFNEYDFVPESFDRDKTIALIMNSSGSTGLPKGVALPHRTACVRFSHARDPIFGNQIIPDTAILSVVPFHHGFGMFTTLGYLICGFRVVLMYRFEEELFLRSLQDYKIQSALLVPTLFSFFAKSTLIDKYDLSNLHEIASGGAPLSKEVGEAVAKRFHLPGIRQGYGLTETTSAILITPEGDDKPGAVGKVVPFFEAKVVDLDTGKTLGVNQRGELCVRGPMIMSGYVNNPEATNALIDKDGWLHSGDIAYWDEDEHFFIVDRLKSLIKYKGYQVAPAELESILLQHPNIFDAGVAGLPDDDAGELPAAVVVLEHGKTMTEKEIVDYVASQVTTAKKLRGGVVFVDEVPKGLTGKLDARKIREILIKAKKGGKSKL
CYP3A4, sequence (P08684 whole entry): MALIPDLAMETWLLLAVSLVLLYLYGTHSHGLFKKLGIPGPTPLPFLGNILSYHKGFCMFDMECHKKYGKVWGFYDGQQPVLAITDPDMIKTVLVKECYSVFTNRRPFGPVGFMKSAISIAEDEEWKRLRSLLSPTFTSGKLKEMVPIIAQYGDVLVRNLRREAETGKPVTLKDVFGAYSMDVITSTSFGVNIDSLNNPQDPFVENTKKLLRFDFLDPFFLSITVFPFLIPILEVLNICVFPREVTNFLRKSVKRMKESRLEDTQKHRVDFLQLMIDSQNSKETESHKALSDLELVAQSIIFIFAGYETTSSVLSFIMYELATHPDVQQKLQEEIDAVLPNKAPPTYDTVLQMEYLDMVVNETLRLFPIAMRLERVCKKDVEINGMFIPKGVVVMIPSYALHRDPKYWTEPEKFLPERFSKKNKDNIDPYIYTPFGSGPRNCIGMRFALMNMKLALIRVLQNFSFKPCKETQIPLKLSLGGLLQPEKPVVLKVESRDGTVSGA
T1 sequence (P33261 whole entry): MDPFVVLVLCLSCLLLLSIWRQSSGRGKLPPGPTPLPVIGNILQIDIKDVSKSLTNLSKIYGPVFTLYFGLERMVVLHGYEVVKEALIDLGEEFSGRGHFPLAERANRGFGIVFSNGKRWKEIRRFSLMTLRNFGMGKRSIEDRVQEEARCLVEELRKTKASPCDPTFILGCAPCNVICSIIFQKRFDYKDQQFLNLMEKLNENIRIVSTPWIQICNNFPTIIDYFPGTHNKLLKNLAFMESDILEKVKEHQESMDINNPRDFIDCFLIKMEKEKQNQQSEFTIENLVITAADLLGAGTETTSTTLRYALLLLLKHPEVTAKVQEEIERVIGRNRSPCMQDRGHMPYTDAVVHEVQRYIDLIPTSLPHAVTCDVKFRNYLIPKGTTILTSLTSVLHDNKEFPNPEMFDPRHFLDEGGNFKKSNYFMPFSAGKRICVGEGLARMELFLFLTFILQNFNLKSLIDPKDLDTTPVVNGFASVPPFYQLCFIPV
T3 sequence (P11712 whole entry): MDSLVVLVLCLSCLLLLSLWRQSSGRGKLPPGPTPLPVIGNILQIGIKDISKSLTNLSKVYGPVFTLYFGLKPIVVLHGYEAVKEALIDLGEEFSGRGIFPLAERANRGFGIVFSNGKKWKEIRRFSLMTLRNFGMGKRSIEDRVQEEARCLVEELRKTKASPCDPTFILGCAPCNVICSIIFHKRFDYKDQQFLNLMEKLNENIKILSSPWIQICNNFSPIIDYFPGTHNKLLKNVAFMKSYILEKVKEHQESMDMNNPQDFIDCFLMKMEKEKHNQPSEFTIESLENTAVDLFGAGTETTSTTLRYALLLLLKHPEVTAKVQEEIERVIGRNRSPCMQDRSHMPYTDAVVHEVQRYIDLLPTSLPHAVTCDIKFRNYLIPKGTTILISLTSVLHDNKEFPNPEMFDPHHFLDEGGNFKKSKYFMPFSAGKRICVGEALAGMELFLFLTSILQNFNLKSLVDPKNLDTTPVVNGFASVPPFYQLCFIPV

Structure (SMILES)	IC50 (human CYP2D6 [2]; [10])	CYP2D6 Efficacy (in parenthesis) (human CYP2D6 [5])	IC50 (human CYP2C19 [7]; [12])	CYP3A4 IC50 (CYP3A4)	CYP1A2 IC50 (human CYP1A2 [6])	Luciferase IC50 [8]	IC50 (human CYP2D6 [2])	CYP3A4 IC50 (half-maximal inhibitory concentration) (CYP3A4)	CYP2C9 IC50 (half-maximal inhibitory concentration) (human CYP2C9 [3])	CYP1A2 IC50 (half-maximal inhibitory concentration) (human CYP1A2 [6])	Luciferase IC50 (half-maximal inhibitory concentration) [8]	other results
O=[N+]([O-])c1c2ccccc2cc2ccccc12 [9-Nitroanthracene]	34 µM	34.03 ± 2.33 (-39 ± 13) %	19.9 µM									CYP2C19 Efficacy (in parenthesis) (human CYP2C19 [1]): 19.86 ± 2.28 (-116 ± 4) %; CYP2C9 Efficacy (in parenthesis) (human CYP2C9 [3]): 13.51 ± 1.21 (-86 ± 11) %; IC50 (human CYP2C9 [4]; [11]): 13.5 µM; CYP1A2 Efficacy (in parenthesis) (human CYP1A2 [6]): 0.27 ± 0.04 (-96 ± 5) %; IC50 [8]: 22.6 µM; IC50 (human CYP1A2 [9]; CYP1A2 IC50 (half-maximal inhibitory concentration)): 0.27 µM
CCc1cccc(N(C)C(N)=Nc2cccc3ccccc23)c1 [Aptiganel hydrochloride]				Inactive	Inactive	Inactive						IC50 (human CYP2D6 [2]; CYP2D6 IC50): 0.14 µM
CN1CCC(N(Cc2ccccc2)c2ccccc2)CC1 [Bamipine]				Inactive	Inactive	Inactive	0.38 µM					CYP2C9 IC50 (human CYP2C9 [3]): Inactive; IC50 (human CYP2C19 [7]): 36.8 µM
c1ccc2cc3c(ccc4ccccc43)cc2c1 [Benz(a)anthracene]				Inactive								IC50 (human CYP2D6 [2]; CYP2D6 IC50): 50.5 µM; IC50 (human CYP2C9 [4]; CYP2C9 IC50): 36.4 µM; IC50 (human CYP2C19 [7]; CYP2C19 IC50): 15.9 µM; IC50 [8]: 6.12 µM; IC50 (human CYP1A2 [9]; CYP1A2 IC50): 0.86 µM
CN(C)CCCSc1ccccc1NC(=O)/C=C/c1ccccc1 [Cinanserin]	0.52 µM	0.52 ± 0.22 (-96 ± 14) %	29.6 µM					Inactive	Inactive	Inactive	Inactive	CYP2C19 Efficacy (in parenthesis) (human CYP2C19 [1]): 29.59 ± 16.13 (-78 ± 38) %
Clc1ccccc1C(c1ccccc1)(c1ccccc1)n1ccnc1 [Clotrimazole]	46.2 µM	46.25 ± 14.89 (-110 ± 18) %	3.88 µM								Inactive	CYP2C19 Efficacy (in parenthesis) (human CYP2C19 [1]): 3.88 ± 0.66 (-140 ± 14) %; CYP3A4 Efficacy (in parenthesis) (CYP3A4): 0.02 ± 0.01 (-96 ± 6) %; CYP2C9 Efficacy (in parenthesis) (human CYP2C9 [3]): 1.14 ± 0.44 (-107 ± 6) %; IC50 (human CYP2C9 [4]; [11]): 1.14 µM; CYP1A2 Efficacy (in parenthesis) (human CYP1A2 [6]): 9.92 ± 2.76 (-108 ± 12) %
NC(=O)C(c1ccccc1)(c1ccccc1)[C@@H]1CCN(CCc2ccc3c(c2)CCO3)C1 [Darifenacin hydrobromide]	0.41 µM	0.41 ± 0.07 (-99 ± 4) %						Inactive	Inactive	Inactive	Inactive	CYP2C19 IC50 (half-maximal inhibitory concentration) (human CYP2C19 [1]): Inactive
C1CCC(NC2CCCCC2)CC1 [Dicyclohexylamine]				Inactive	Inactive	Inactive	0.28 µM					CYP2C19 IC50 (human CYP2C19 [1]): Inactive; CYP2C9 IC50 (human CYP2C9 [3]): Inactive
OC(CCCN1CCCCC1)(c1ccccc1)c1ccccc1 [Diphenidol]	0.09 µM		32.7 µM					Inactive	Inactive	Inactive	Inactive	
CC(Cc1ccccc1)N(C)Cc1ccco1 (stereo not shown) [Furfenorex]				Inactive	Inactive	Inactive						IC50 (human CYP2D6 [2]; CYP2D6 IC50): 0.85 µM; CYP2C9 IC50 (human CYP2C9 [3]): Inactive; IC50 (human CYP2C19 [7]; CYP2C19 IC50): 6.65 µM
CN1[C@@H]2CC[C@H]1C[C@@H](NC(=O)n1c(=O)[nH]c3ccccc31)C2 [Itasetron]							0.87 ± 0.1 µM	Inactive	Inactive	Inactive	Inactive	CYP2C19 IC50 (half-maximal inhibitory concentration) (human CYP2C19 [1]): Inactive
COC(=O)C1=C(C)NC(C)=C(C(=O)OCCN2CCN(C(c3ccccc3)c3ccccc3)CC2)C1c1cccc([N+](=O)[O-])c1 (stereo not shown) [Manidipine]							6.17 ± 5.32 µM	Inactive		Inactive	Inactive	IC50 (human CYP2C9 [4]): 0.52 ± 0.3 µM; IC50 (human CYP2C19 [7]): 2.39 ± 2.01 µM
c1ccc2c(c1)Sc1ccccc1N2CC1CN2CCC1CC2 (stereo not shown) [Mequitazine]	0.29 µM							Inactive	Inactive	Inactive	Inactive	CYP2C19 IC50 (half-maximal inhibitory concentration) (human CYP2C19 [1]): Inactive
